Experimental data as given in PMC4838890, “Dynamic and flexible H3K9me3 bridging via HP1β dimerization establishes a plastic state of condensed chromatin” (Nature Communications, 2016).

Assays:
[1] = target: CSD-CSD interaction of hHP1β monomers; test: ITC dilution, CSD-CSD dimerization; assay type: binding, human; conditions: ITC dilution experiments, not shown
self-dimerization = conditions: ref [9][20]; read-out: dimerization Kd in solution; cited from earlier work
Description: To test this hypothesis, we analysed an hHP1β chimera where the CSD was replaced with an unrelated dimerization module. We used glutathione S-transferase (GST), as it is known to form dimers of similar strength as hHP1β WT in solution (Kd<1 nM)[9][20].

DNA fragment of 150 bp = test: Electrophoretic mobility shift assay (EMSA); assay type: binding; conditions: 150 bp DNA, 0, 3, 9 μM protein, 100 mM NaCl, 5 mM MgCl2, RT
Description: 50 ng 150 bp DNA amplified from the backbone of pUC18 was incubated with 0, 3, 9 μM recombinant protein in 10 μl EMSA buffer (10 mM Tris-HCl (pH 8.0), 100 mM NaCl, 5 mM MgCl2) for 20 min at room temperature (RT). 2 μl 50% (v/v) glycerol was added and samples were loaded onto 6% native PAGE gels. After electrophoresis, DNA was visualized by staining with 1 × SYBR Gold/0.25 × TBE for 20 min at RT. Images were captured using a ChemiDoc MP Imaging System (Bio-Rad, München, Germany). […]
crosslinking Fig. S6e,f nucleosomes […]
crosslinking Fig. S7a,b nucleosomes
EMSA Fig. 1g; Fig. 5c; n//a RT 100 5
1Preincubation of oligonucleosomes and h HP1β was performed at 4 °C . Measurements wer e carried out at the in dicated te mperature.
2in increments o f 0 .5 mM
3MgCl2 was added at the end of incubation to coprecipitate oligonucleosomes a nd bound hHP1β.

[2] = target: asymmetrically modified H3K9me3-mononucleosomes; test: SPR, immobilized asymmetric H3K9me3 mononucleosome; design: species or system Xenopus laevis; conditions: SPR titration 0.024 to 50 µM, asymmetrically modified mononucleosome at 950 RU, one site-specific binding model; read-out: apparent Kd (Supplementary Fig. 8k)
[3] = test system: immobilized H3 tail peptides, mono- and oligonucleosomes; test: Pull-down, H3 tail peptides, mono- and oligonucleosomes; assay type: binding, Xenopus laevis; conditions: immobilized on streptavidin beads, 4°C
Description: 4 μg C-terminally biotinylated histone H3 peptides (aa 1–20) or 1 μg of biotinylated nucleosomes or oligonucleosomal arrays were incubated with 40 μl Streptavidin MagnaSphere Paramagmetic beads (Promega, Mannheim, Germany) in 350 μl binding buffer (10 mM triethanolamine (pH 7.5), 150 mM NaCl, 0.1 mM EDTA, 0.1% (v/v) Triton-X100) supplemented with 1 mg ml^−1 BSA for 2.5 h at RT. Unbound material was removed by three washes with 0.5 ml binding buffer. Charged beads were then incubated with 100 pmol recombinant protein in 350 μl binding buffer for 1 h at 4°C on a rotator. Beads were washed three times with 0.5 ml binding buffer for 3 min per wash at 4°C. Bound proteins were eluted in 20 μl 1 × SDS loading buffer and by boiling for 5 min.
Supplementary Table 1: Summary of conditions used in the different experiments of this study. experiment result modification template Temp. [NaCl] [MgCl2] […]
chromatin Fig. 1e,f; Fig. S1f-h; H3K9me3 oligo- 4 150 5 coprecipitation Fig. S2b nucleosomes
Fig. S7d,f; Fig.S9c nucleosomes […]
chromatin sedimentation Fig. 4a; H3K9me3 oligo- 4 150 0
(single point) Fig. S3b nucleosomes […]
chromatin sedimentation. oligo-(titration) Fig. 3a H3K9me3 nucleosomes 4 150 0

[4] = Multimerization beyond dimer; assay type: physicochemical; conditions: dynamic light scattering, SAXS, protein cross-linking, nuclear magnetic resonance
H3K9me0 oligonucleosomes = test: Fluorescence correlation spectroscopy (FCS), H3K9me0 oligonucleosomes; assay type: biochemical, Xenopus laevis; conditions: 150 mM NaCl
Description: All fluorescence measurements were performed with a pulsed custom-built mode-locked Ti:Sa-Laser and a confocal two-photon fluorescence microscope setup. Detailed description of the experimental setup and the measurement procedure are available on request. In all cases 10 nM of the acceptor labelled species, ATTO 610-labelled nucleosomal array, was incubated with 20–200 μM of recombinant hHP1β in 10 μl of 10 mM triethanolamine HCl (pH 7.5), 0.1 mM EDTA, 150 mM NaCl at 4°C. For each sample the fluorescence correlation curve, fluorescence intensity and anisotropy values were determined at 22°C. Every data point was averaged over a minimum of 15 single measurements of 10 s each. […]
The fluorescence data were analysed using the correlation function [drawing 1] , and the equation for free diffusion of particles [drawing 2] , where I(t) is the fluorescence intensity measured at time t, N the particle number, τD the diffusion time, and r0=0.25 the axis ratio of the focal region, considering the dimensions of a Gaussian beam waist. […]
(b) Results of stepwise precipitation and resolubilization after clustering H3K9me3-oligonucleosomes by hHP1β at different concentrations. DNA remaining in the supernatant after centrifugation was incubated with EtBr and measured by fluorescence reading. […]
(c) Instrumental setup used for two -photon fluorescence correlation spectroscopy (FCS). […]

[5] = test system: H3KC9me3 oligonucleosomes; test: Chromatin coprecipitation, H3KC9me3 oligonucleosomes; assay type: binding, Xenopus laevis
Description: 6.7 nM oligonucleosomes were incubated with 1 μM recombinant protein in 100 μl binding buffer (10 mM triethanolamine (pH 7.5), 150 mM NaCl, 5 mM MgCl2, 0.1 mM EDTA, 0.1% (v/v) Triton-X100) for 1 h on ice. Precipitated chromatin complexes were recovered by centrifugation at 16,100g for 30 min at 4°C. Pellets were washed once with 0.5 ml binding buffer and centrifuged for 15 min at 4 °C. Precipitated material was resuspended in 10 μl 1 × SDS loading buffer and boiled for 5 min before running on SDS–PAGE.
Supplementary Table 1: Summary of conditions used in the different experiments of this study.
experiment result modification template Temp. [NaCl] [MgCl2]
chromatin Fig. 1e,f; Fig. S1f-h; H3K9me3 oligo- 4 150 5

hHP1β WT: recombinant human heterochromatin protein 1β (GenBank NM_001127228), 185 aa
CSD-CSD dimerization strength [1]: nanomolar regime | Kd (self-dimerization): < 0.001 µM | DNA binding (DNA fragment of 150 bp): hHP1α but not hHP1β showed a high level of general DNA binding | Kd [2]: 7.5 µM | retention on H3K9me3 versus unmodified matrices [3]: retained much more efficiently on all three matrices in the presence of H3K9me3 | multimerization beyond CSD-mediated dimerization [4]: failed to detect any multimerization of hHP1β beyond CSD-mediated dimerization | assemblies with H3K9me0 oligonucleosomes (FCS) (H3K9me0 oligonucleosomes): larger assemblies only appeared at high hHP1β WT concentrations | recovery with H3KC9me3 oligonucleosomes ([5]; 6.7 nM oligonucleosomes, 1 μM protein, 150 mM NaCl, 5 mM MgCl2): bound specifically to H3K9me3 oligonucleosomes irrespective of the saturation level of the chromatin template | molecules bound per nucleosome ([5]; saturating protein concentrations): two
